# US20160199372A1, “IMIDAZOPYRIDAZINE KINASE INHIBITORS USEFUL TO TREATING A DISEASE OR DISORDER MEDIATED BY AAK1, SUCH AS ALZHEIMER'S DISEASE, BIPOLAR DISORDER, PAIN, SCHIZOPHRENIA” (Bristol-Myers Squibb Company, priority 2013, published 2016)
# Target: T1, GST-Xa-hAAK1 (Homo sapiens, UniProt Q2M2I8)
# T1 construct: made in house
# Assay: AAK1 Kinase Assay
# Format: biochemical
# Details: ATP 22 μM; GST-Xa-hAAK1 3.5 nM; 3 hours at room temperature; Caliper LabChip 3000
# Source text: IC50 values were derived by non-linear regression analysis.
# T1 sequence (Q2M2I8 whole entry): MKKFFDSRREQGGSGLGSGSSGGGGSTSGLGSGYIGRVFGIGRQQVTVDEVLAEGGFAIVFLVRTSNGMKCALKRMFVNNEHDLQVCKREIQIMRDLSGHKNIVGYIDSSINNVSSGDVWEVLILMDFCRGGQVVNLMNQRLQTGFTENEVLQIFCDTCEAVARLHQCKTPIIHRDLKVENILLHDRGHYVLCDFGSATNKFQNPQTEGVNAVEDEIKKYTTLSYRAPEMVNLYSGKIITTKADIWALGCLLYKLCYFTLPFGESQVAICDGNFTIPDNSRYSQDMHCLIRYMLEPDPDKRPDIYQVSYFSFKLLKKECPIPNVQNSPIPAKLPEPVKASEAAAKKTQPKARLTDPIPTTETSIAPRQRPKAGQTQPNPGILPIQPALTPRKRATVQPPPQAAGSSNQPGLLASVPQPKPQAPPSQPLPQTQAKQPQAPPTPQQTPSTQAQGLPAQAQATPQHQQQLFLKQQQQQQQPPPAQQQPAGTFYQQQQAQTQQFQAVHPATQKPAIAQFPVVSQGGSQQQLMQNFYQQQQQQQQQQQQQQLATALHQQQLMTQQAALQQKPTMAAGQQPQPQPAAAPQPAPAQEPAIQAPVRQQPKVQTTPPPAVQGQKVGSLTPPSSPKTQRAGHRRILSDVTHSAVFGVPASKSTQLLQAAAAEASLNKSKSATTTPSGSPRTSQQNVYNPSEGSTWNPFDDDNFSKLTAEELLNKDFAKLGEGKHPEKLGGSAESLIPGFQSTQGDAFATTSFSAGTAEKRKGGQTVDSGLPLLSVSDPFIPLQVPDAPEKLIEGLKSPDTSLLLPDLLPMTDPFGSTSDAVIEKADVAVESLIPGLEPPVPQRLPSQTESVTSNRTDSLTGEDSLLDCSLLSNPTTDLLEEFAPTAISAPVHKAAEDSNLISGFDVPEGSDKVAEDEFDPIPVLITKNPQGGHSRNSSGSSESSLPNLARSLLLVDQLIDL
row,SMILES,IC50 [nM]
1,"CC(C)c1nc(-c2cccc(NC(=O)c3cnc4c(Nc5ccccc5)cc(N[C@H]5CC[C@H](N)CC5)nn34)c2)no1 [Example 1, 6-(trans-4-Aminocyclohexylamino)-N-(3-(5-isopropyl-1,2,4-oxadiazol-3-yl)phenyl)-8-(phenylamino)imidazo[1,2-b]pyridazine-3-carboxamide]",10
2,"CC(C)c1nnc(-c2cccc(NC(=O)c3cnc4c(Nc5ccccc5)cc(N[C@H]5CC[C@H](N)CC5)nn34)c2)s1 [Example 2, 6-(trans-4-Aminocyclohexylamino)-N-(3-(5-isopropyl-1,3,4-thiadiazol-2-yl)phenyl)-8-(phenylamino)imidazo[1,2-b]pyridazine-3-carboxamide]",11
3,"CC(C)c1nc(-c2cccc(NC(=O)c3cnc4c(Nc5ccccc5)cc(N[C@H]5CC[C@H](N)CC5)nn34)c2)co1 [Example 3, 6-(trans-4-Aminocyclohexylamino)-N-(3-(2-isopropyloxazol-4-yl)phenyl)-8-(phenylamino)imidazo[1,2-b]pyridazine-3-carboxamide]",94
4,"CC(C)n1nnc(-c2cccc(NC(=O)c3cnc4c(Nc5ccccc5)cc(N[C@H]5CC[C@H](N)CC5)nn34)c2)n1 [Example 4, 6-(trans-4-Aminocyclohexylamino)-N-(3-(2-isopropyl-2H-tetrazol-5-yl)phenyl)-8-(phenylamino)imidazo[1,2-b]pyridazine-3-carboxamide]",5.1
5,"Cc1nc(-c2cccc(NC(=O)c3cnc4c(Nc5ccccc5)cc(N[C@H]5CC[C@H](N)CC5)nn34)c2)co1 [Example 5, 6-(trans-4-Aminocyclohexylamino)-N-(3-(2-methyloxazol-4-yl)phenyl)-8-(phenylamino)imidazo[1,2-b]pyridazine-3-carboxamide]",79
6,"N[C@H]1CC[C@H](Nc2cc(Nc3ccccc3)c3ncc(C(=O)Nc4cccc(-c5coc(-c6ccccc6)n5)c4)n3n2)CC1 [Example 6, 6-(trans-4-Aminocyclohexylamino)-8-(phenylamino)-N-(3-(2-phenyloxazol-4-yl)phenyl)imidazo[1,2-b]pyridazine-3-carboxamide]",940
7,"Cc1nc(-c2cccc(NC(=O)c3cnc4c(Nc5ccccc5)cc(N[C@H]5CC[C@H](N)CC5)nn34)c2)cs1 [Example 7, 6-(trans-4-Aminocyclohexylamino)-N-(3-(2-methylthiazol-4-yl)phenyl)-8-(phenylamino)imidazo[1,2-b]pyridazine-3-carboxamide]",114
8,"CNc1cc(N[C@H]2CC[C@H](N)CC2)nn2c(C(=O)Nc3cccc(-c4nnc(C(C)C)s4)c3)cnc12 [Example 8, 6-(trans-4-Aminocyclohexylamino)-N-(3-(5-isopropyl-1,3,4-thiadiazol-2-yl)phenyl)-8-(methylamino)imidazo[1,2-b]pyridazine-3-carboxamide]",8.9
9,"CNc1cc(N[C@H]2CC[C@H](N)CC2)nn2c(C(=O)Nc3cccc(-c4nnn(C(C)C)n4)c3)cnc12 [Example 9, 6-(trans-4-Aminocyclohexylamino)-N-(3-(2-isopropyl-2H-tetrazol-5-yl)phenyl)-8-(methylamino)imidazo[1,2-b]pyridazine-3-carboxamide]",8
10,"CNc1cc(N[C@H]2CC[C@H](N)CC2)nn2c(C(=O)Nc3cccc(-c4noc(C(C)C)n4)c3)cnc12 [Example 10, 6-(trans-4-Aminocyclohexylamino)-N-(3-(5-isopropyl-1,2,4-oxadiazol-3-yl)phenyl)-8-(methylamino)imidazo[1,2-b]pyridazine-3-carboxamide]",16
11,"CC(C)c1nc(-c2cccc(NC(=O)c3cnc4ccc(N[C@H]5CC[C@H](N)CC5)nn34)c2)no1 [Example 11, 6-(trans-4-Aminocyclohexylamino)-N-(3-(5-isopropyl-1,2,4-oxadiazol-3-yl)phenyl)imidazo[1,2-b]pyridazine-3-carboxamide]",27
12,"CC(C)c1nnc(-c2cccc(NC(=O)c3cnc4ccc(N[C@H]5CC[C@H](N)CC5)nn34)c2)s1 [Example 12, 6-(trans-4-Aminocyclohexylamino)-N-(3-(5-isopropyl-1,3,4-thiadiazol-2-yl)phenyl)imidazo[1,2-b]pyridazine-3-carboxamide]",9.1
13,"CC(C)n1nnc(-c2cccc(NC(=O)c3cnc4ccc(N[C@H]5CC[C@H](N)CC5)nn34)c2)n1 [Example 13, 6-(trans-4-Aminocyclohexylamino)-N-(3-(2-isopropyl-2H-tetrazol-5-yl)phenyl)imidazo[1,2-b]pyridazine-3-carboxamide]",12
14,"CC(C)c1nc(-c2cccc(NC(=O)c3cnc4ccc(N[C@H]5CC[C@H](N)CC5)nn34)c2)co1 [Example 14, 6-(trans-4-Aminocyclohexylamino)-N-(3-(2-isopropyloxazol-4-yl)phenyl)imidazo[1,2-b]pyridazine-3-carboxamide]",158
15,"Cc1nc(-c2cccc(NC(=O)c3cnc4ccc(N[C@H]5CC[C@H](N)CC5)nn34)c2)co1 [Example 15, 6-(trans-4-Aminocyclohexylamino)-N-(3-(2-methyloxazol-4-yl)phenyl)imidazo[1,2-b]pyridazine-3-carboxamide]",342
16,"N[C@H]1CC[C@H](Nc2ccc3ncc(C(=O)Nc4cccc(-c5coc(-c6ccccc6)n5)c4)n3n2)CC1 [Example 16, 6-(trans-4-Aminocyclohexylamino)-N-(3-(2-phenyloxazol-4-yl)phenyl)imidazo[1,2-b]pyridazine-3-carboxamide]",154
17,"N[C@H]1CC[C@H](Nc2cc(Nc3ccccc3)c3ncc(-c4ccsc4)n3n2)CC1 [Example 17, N^6-(trans-4-Aminocyclohexyl)-N^8-phenyl-3-(thiophen-3-yl)imidazo[1,2-b]pyridazine-6,8-diamine]",10
18,"CN(C)[C@H]1CC[C@H](Nc2cc(Nc3ccccc3)c3ncc(-c4ccsc4)n3n2)CC1 [Example 19, N^6-(trans-4-(Dimethylamino)cyclohexyl)-N^8-phenyl-3-(thiophen-3-yl)imidazo[1,2-b]pyridazine-6,8-diamine]",12
19,"CNc1cc(N[C@H]2CC[C@H](N)CC2)nn2c(-c3ccsc3)cnc12 [Example 20, N^6-(trans-4-Aminocyclohexyl)-N^8-methyl-3-(thiophen-3-yl)imidazo[1,2-b]pyridazine-6,8-diamine]",38
20,"N[C@H]1CC[C@H](Nc2cc(NC3CC3)c3ncc(-c4ccsc4)n3n2)CC1 [Example 21, N^6-(trans-4-Aminocyclohexyl)-N^8-cyclopropyl-3-(thiophen-3-yl)imidazo[1,2-b]pyridazine-6,8-diamine]",40
21,"COc1ccc(Nc2cc(N[C@H]3CC[C@H](N)CC3)nn3c(-c4ccsc4)cnc23)cc1 [Example 22, N^6-(trans-4-Aminocyclohexyl)-N^8-(4-methoxyphenyl)-3-(thiophen-3-yl)imidazo[1,2-b]pyridazine-6,8-diamine]",9

# Test system: mice
# Assay: formalin paw test (pain response)
# Format: in vivo, mouse
# Details: 60 mg/kg sc; administered 30 minutes prior to formalin injection; % response relative to gabapentin 200 mg/kg
# Method: AAK1 homozygous (−/−) and their wild-type (+/+) littermates were tested using the formalin paw test in order to assess their acute and tonic nociceptive responses. For these tests, Automatic Nociception Analyzers (purchased from the Ozaki lab at University of California, San Diego) were used. A metal band was placed around the left hind paw of each mouse 30 minutes prior to testing. After the 30-minute acclimation period, 20 μl of 5% formalin is subcutaneously injected in the dorsal surface of the left hind paw. Mice were individually housed in cylindrical chambers for 45 minutes. Fresh 5% formalin solution was prepared by diluting formaldehyde (Formalde-fresh 20%, Fisher Scientific, Fair Lawn, N.J.) with distilled water. Investigatory compounds were administered 30 minutes prior to formalin injection.
# A computer recorded flinches per minute, total flinches for phase I (acute phase=first 8 minutes), and total flinches for phase II (tonic phase=time between minutes 20-40 or 10-60 minutes for drug studies) through an electromagnetic field. See Yaksh T L, Ozaki G, McCumber D, Rathbun M, Svensson C, Malkmus S, Yaksh M C. An automated flinch detecting system for use in the formalin nociceptive bioassay. J Appl Physiol., 2001; 90:2386-402.
# The same test was used to confirm that the administration of an AAK1 inhibitor can also affect pain response. […]
row,SMILES,Response [%]
1,"CC(C)c1nc(-c2cccc(NC(=O)c3cnc4c(Nc5ccccc5)cc(N[C@H]5CC[C@H](N)CC5)nn34)c2)no1 [Example 1, 6-(trans-4-Aminocyclohexylamino)-N-(3-(5-isopropyl-1,2,4-oxadiazol-3-yl)phenyl)-8-(phenylamino)imidazo[1,2-b]pyridazine-3-carboxamide]",59

# Same assay, conditions: 200 mg/kg sc; administered 30 minutes prior to formalin injection; % response relative to gabapentin 200 mg/kg
row,SMILES,Response [%]
1,"NCC1(CC(=O)O)CCCCC1 [Gabapentin, reference compound]",73
